Data taken from US20070072931A1, “Pharmaceutical composition and a method for treatment of prostate cancer” (priority 2005, published 2007).
Entries after “also recorded” stand apart in the source; their conditions may differ.

Columns and labels:
PARP = assay: Immunoblotting of PARP cleavage in PC-3 cells; assay type: cell-based, human; settings: 3 μg/ml
Method: (§1) PC-3 cells (1×10^6 cells) were incubated with complete medium. Cells were detached using cell dissociation reagent from Sigma Chemical company St Louis, Mo., USA. They were collected by centrifugation at 1500 g for 10 minutes and boiled for 5-7 minutes in sodium dodecyl sulphate (SDS) buffer (pH 6.8). Aliquots containing 60 μg total cellular protein were separated by 10% SDS-PAGE and transferred to PVDF membrane (MILIPORE, Bedford, Mass., USA). Membrane was blocked with blocking buffer for 1 hr at room temperature and probed with desired primary antibody caspase 9, Bcl-xl, pAkt/1/2/3(ser 473), anti PARP, Cytochrome C (Santa-Cruz Biotechnology, Inc. USA). Anti caspase 3 that recognizes procaspase 3 (32 kDa) and the active cleaved caspase 3 (17 kDa) (BD Biosciences, Mountainview, Calif.). Akt, cleaved caspase 9 (Cell Signaling technology, Beverly, Mass.) overnight at 4° C. followed by alkaline phosphatase conjugated secondary antibody and detection.
(§2) PC-3 cells (1×10^6 cells) were incubated with complete medium alone or with 3 μg/ml of Mahanine (MK-3) as indicated. Cells were detached using cell dissociation reagent from Sigma Chemical company St Louis, Mo., USA. The cells were collected by centrifugation at 1500 g for 10 minutes and boiled for 5-7 minutes in SDS buffer (pH 6.8). […]

caspase 3 = assay: Immunoblotting of caspase 3 activation in PC-3 cells; assay type: cell-based, human
Method: as §1, §2

cardiomyocytes = assay: Cell viability, primary culture of rat neonatal cardiomyocytes; assay type: cell-based; settings: 9 μg/ml
Method: The cardiomyocytes from 2-day-old neonatal rat were isolated by the method previously described by Yoshihiro Kimura (1994) with modifications. Briefly, heart was excised and minced in pre warmed (37° C.) Ads buffer (1.2M NaCl, 198 mM HEPES, 54 mM KCl, 8.3 mM MgSO4, 55.4 mM glucose, 95 mM NaH2PO4), digested in type II Collagenase 0.05% and Pancreatin in three successive digestions of 15 minutes each. Supernatant was pooled and cells palleted at 2000 g, for 10 minutes. Cells were resuspended and plated in collagen coated T-25 flasks in Medium-199 enriched with 10% FBS and 1% antibiotic-antimycotic.
The cardiomyocytes from 2-day-old neonatal rat were isolated by the method previously described by Yoshihiro Kimura (1994) with modifications. Briefly, the heart was excised and minced in pre-warmed (37° C.) Ads buffer (1.2M NaCl, 198 mM HEPES, 54 mM KCl, 8.3 mM MgSO4, 55.4 mM glucose, 95 mM NaH2PO4), digested in type II Collagenase 0.05% and Pancreatin in 3-succesive digestions of 15 minutes each. Supernatant was pooled and cells palleted at 2000 g, 10 minutes. Cells were resuspended and plated in collagen coated T-25 flasks in Medium-199 enriched with 10% FBS and 1% antibiotic-antimycotic.
(§3) To evaluate the specificity of mahanine, its effect on other cells in primary culture, such as, hepatocytes, cardiomyocyte and skeletal muscle was examined.

Bcl-xl = assay: Immunoblotting of Bcl-xl expression in PC-3 cells; assay type: cell-based, human; settings: 36 hrs (mahanine 3 μg/ml)
Method: as §1, §2

skeletal muscle cells = assay: Cell viability, primary culture of neonatal rat skeletal muscle; assay type: cell-based; settings: 9 μg/ml
Method: The skeletal muscles from 2-day-old neonatal rats were isolated by method described previously by William E. Russell (1997) with modifications. Briefly, Soleus muscle was dissected, minced and digested with 0.2% Type II Collagenase and 0.05% trypsin in PBS pH 7.4, 0.15M NaCl. The dispersed skeletal muscle cells were centrifuged (100 g, 10 minutes) washed and resuspended in PBS with 1% antibiotic-antimycotic. Cells were preincubated for 30 minutes at 37° C., 95% air/5% CO2. The floating muscle cells were plated on collagen coated T-25 flasks in DMEM enriched with 10% FBS and 1% antibiotic-antimycotic.
The skeletal muscles from 2-day-old neonatal rat were isolated by method described previously by William E. Russell (1997) with modifications.
Briefly, Soleus muscles were dissected, minced and digested with 0.2% Type II Collagenase and 0.05% trypsin in PBS, pH 7.4, 0.15M NaCl. The dispersed skeletal muscle cells were centrifuged (1000 g, 10 minutes) washed and re-suspended in PBS with 1% antibiotic-antimycotic. Cells were preincubated for 30 minutes at 37° C., 95% air/5% CO2. The floating muscle cells were plated on collagen coated T-25 flasks in DMEM enriched with 10% FBS and 1% antibiotic-antimycotic.
as §3

[1] = Acute toxicity as per WHO guidelines, haematological and biochemical parameters; assay type: in vivo, Mice; Balb/C
Method: Experiments for acute toxicity were performed as per the guidelines of WHO.
Experimental subject: Mice; Balb/C Male, female; 25 gms body weight (approx).
16 mice were divided into 2 groups; 8 animals received the dosage of @2 gm/kg body weight of combined extract. Equal volume of the vehicle (DMSO) was given to 8 animals, wherein the dose was administered orally once and then animals were sacrificed and haematological parameters checked 15 days after treatment.
Experimental subject: Mice; Balb/C Male; female; 25 gms body weight (approx).
16 mice were divided into 2 groups 8 animals were received the compound @2 gm/kg body weight. Equal volume of the vehicle (DMSO) was given to 8 animals, wherein the dose was administered orally once, and then animals were sacrificed and haematological and biochemical parameters checked 15 days after treatment.
Biochemical parameters were assessed for the pure molecule mahanine. Since it is a pure molecule there is a need to see the biochemical profile, therefore we concentrated on the biochemical parameters only. The experimental procedure followed was the same as that for the combined extract described above.

PC-3 cells = assay: Viability of PC-3 by MTT assay (CellTiter 96 AQueous One); assay type: cell-based, human; settings: mahanine 1, 2, 3 μg/ml vs untreated cells
Method: Human prostate cancer cell line, PC-3 (PTEN-ve, androgen independent) from American Type Culture Collection, Manassas, Va., USA was used. Cells were grown in Dulbecco's Modified Eagle Medium (DMEM) supplemented with 10% Fetal Bovine Serum (FBS) and 1% antibiotic-antimycotic. Cells were cultured in 37° C. in an atmosphere of 5% CO2.
Viability of PC-3 after treatment as at the indicated times was determined by MTT assay—CellTiter 96® AQoueus One Solution Cell Proliferation Assay (Promega Corp., Madison, Wis.), as per manufacturer's protocol. Briefly, 10,000 cells were plated in triplicate in 96 well plates and incubated for 12 hrs in complete media. […] Absorbance was recorded at 490 nm with 96 well plate readers. Reference wavelength of 630 nm was used to reduce background contributed by non-specific absorbance due to cell debris. […]
Viability of PC-3 after treatment as at the indicated times was determined by MTT assay—CellTiter 96® AQoueus One Solution Cell Proliferation Assay (Promega Corp., Madison, Wis.), as per manufacturer's protocol.
Briefly, 10,000 cells were plated in triplicate in 96 well plates and incubated for 12 hrs in complete media. […] Absorbance was recorded at 490 nm with 96 well plate readers. Reference wavelength of 630 nm was used to reduce background contributed by non-specific absorbance due to cell debris.

LNCaP cells = assay: Cell killing / viability of androgen dependent prostate cancer cell line LNCaP; assay type: cell-based; settings: mahanine 1, 2, 3 μg/ml vs untreated cells
Method: FIG. 2 is a graph showing dose response of PC-3 and LNCaP cell line to mahanine. […] The dose used was 1, 2, 3 μg/ml in comparison to control untreated cells (0) in both the cell lines.

caspase 9 = assay: Immunoblotting of caspase 9 activation in PC-3 cells; assay type: cell-based, human; settings: 3 μg/ml
Method: as §1, §2

hepatocytes = assay: Cell viability, primary culture of rat neonatal hepatocytes; assay type: cell-based; settings: 9 μg/ml
Method: The hepatocytes from 2-day-old neonatal rats were isolated by method described previously by William E. Russell (1997) with modifications. Briefly, the livers were perfused through the portal vein with a calcium-free solution consisting of 150 mM NaCl, 2.8 mM KCl, 5.5 mM glucose, and 25 mM HEPES (pH 7.6) for 10 minutes, followed by mincing and digestion in DMEM containing 0.05% collagenase type IV for 30 minutes. The cells were centrifuged (2000 g, 10 minutes) and dispersed in DMEM enriched with 10% FBS, 1% antibiotic-antimycotic.
The hepatocytes from 2-day-old neonatal rat were isolated by method described previously by William E Russell (1997) with modifications.
Briefly, the livers were perfused through the portal vein with a calcium-free solution consisting of 150 mM NaCl, 2.8 mM KCl, 5.5 mM glucose, and 25 mM HEPES (pH 7.6) for 10 minutes, followed by mincing and digestion in DMEM containing 0.05% collagenase type IV for 30 minutes. The cells were centrifuged (2000 g, 10 minutes) and dispersed in DMEM enriched with 10% FBS, 1% antibiotic-antimycotic.
as §3

Akt = assay: Immunoblotting of Akt and pAkt (ser 473) in PC-3 cells; assay type: cell-based, human
Method: as §1
PC-3 cells (1×10^6 cells) were incubated with complete medium alone or with 3 μg/ml of Mahanine (MK-3) as indicated. Cells were detached using cell dissociation reagent from Sigma Chemical company St Louis, Mo., USA. The cells were collected by centrifugation at 1500 g for 10 minutes and boiled for 5-7 minutes in SDS buffer (pH 6.8). Aliquots containing 60 μg total cellular protein were separated by 10% SDS-PAGE and transferred to PVDF membrane (MILIPORE, Bedford, Mass., USA). Membrane was blocked with blocking buffer for 1 hr at room temperature and probed with desired primary antibody caspase 9, Bcl-xl, pAkt/1/2/3(ser 473), anti PARP, Cytochrome C (Santa-Cruz Biotechnology Inc., USA). Anti-caspase 3 that recognizes procaspase 3 (32 kDa) and the active cleaved caspase 3 (17 kDa) (BD Biosciences, Mountainview, Calif.) were also used. Akt, cleaved caspase 9 (Cell Signaling Technology, Beverly, Mass.) overnight at 4° C. followed by alkaline phosphatase conjugated secondary antibody and detection.

cytochrome c = assay: Immunofluorescence of cytochrome c release in PC-3 cells; assay type: cell-based, human
Method: Cells were cultured on glass cover slips. Both control and treated cells were fixed with PBS containing 4% paraformaldehyde for 2 hrs at 4° C. The cells were permiabilized with 0.1% Triton X-100 in PBS and then incubated with rabbit polyclonal anti-cytochrome c antibody (Santa Cruz, USA, dilution 1:50) for 3 hrs followed by incubation with FITC-conjugated secondary antibody (goat anti-rabbit, Santa Cruz, 1:50) for another 1 hr with rigorous washing in all the above steps with PBS. 1 μg/ml DAPI was also added in each set. The stained cells were observed under fluorescence microscope (Olympus BX51 microscope, Tokyo, Japan) and the images were captured with Cool Snap Pro camera.

Substance: mahanine
- time of maximum cleavage of PARP (89 kDa fragment) (PARP): 36 h
- time of peak of caspase 3 activity (caspase 3; PC-3 cells (mahanine 3 μg/ml)): 60 h
- activation of caspase 3 at 48 hrs (caspase 3; PC-3 cells, 48 hrs (mahanine 3 μg/ml)): considerably increased
- killing of cardiomyocytes in primary culture (cardiomyocytes): did not kill
- Bcl-xl expression at 36 hrs (Bcl-xl): significantly decreased; also recorded: considerably downregulated
- killing of skeletal muscle cells in primary culture (skeletal muscle cells): did not kill
- indication of toxicity in treated mice ([1]; Balb/C mice, 2 gm/kg orally once, 15 days after treatment): no indication of any toxicity
- Creatinine ([1]; Balb/C mice, 2 gm/kg orally once, 15 days after treatment, vehicle control 3.82): 3.72 mg/dL
- Hb ([1]; Balb/C mice, 2 gm/kg orally once, 15 days after treatment, vehicle control 10.69): 10.713 gm/dl
- SGPT ([1]; Balb/C mice, 2 gm/kg orally once, 15 days after treatment, vehicle control 32.0): 30.7 units/ml
- Urea ([1]; Balb/C mice, 2 gm/kg orally once, 15 days after treatment, vehicle control 35.4): 48.6 mg/dL
- WBC ([1]; Balb/C mice, 2 gm/kg orally once, 15 days after treatment, vehicle control 92): 89
- SGOT ([1]; Balb/C mice, 2 gm/kg orally once, 15 days after treatment, vehicle control 147.5): 174.0 units/ml
- RBC ([1]; Balb/C mice, 2 gm/kg orally once, 15 days after treatment, vehicle control 1029): 1032
- change in acute toxicity data until 1 month ([1]; mice, until 1 month): no change
- killing / apoptosis of androgen independent cell line PC-3 (PC-3 cells): in a dose and time dependent manner
- killing / apoptosis of androgen independent cell line PC-3 (PC-3 cells; listed as mahanine): in a time and dose dependent manner
- killing / apoptosis of androgen dependent cell line LNCaP (LNCaP cells): in a dose and time dependent manner
- earliest time at which cleaved caspase 9 could be detected (caspase 9): 6 h
- time course of cleaved caspase 9 (caspase 9): steadily increased at 12 hrs and 24 hrs, and declined at 36 hrs
- killing of hepatocytes in primary culture (hepatocytes): did not kill
- effect on steady state levels of Akt protein (Akt; PC-3 cells): no effect
- inhibition of phosphorylation of Akt (Akt; PC-3 cells): in a dose and time dependent manner
- time at which Akt serine 473 phosphorylation was inhibited (Akt; PC-3 cells (mahanine 3 μg/ml)): 24 h
- time by which Akt activation was totally blocked (Akt; PC-3 cells (mahanine 3 μg/ml)): ≤ 36 h
- leakage of cytochrome c from the mitochondria (cytochrome c): caused leakage of cytochrome c
